Results on 39 molecules are retold here after patent publication US12011422B2, “Synthetic antibacterial compounds and uses thereof” (priority 2021, dated 2024).

The subject of one assay is Pore-TolC E. coli. As to the kind of experiment: MIC determination (CLSI broth microdilution) against Pore-TolC E. coli. In kind it is cell-based, Escherichia coli. The settings on record: for Pore-TolC E. coli MIC: 37° C., 18 hours, lowest concentration showing <10% bacterial growth; for MIC: Escherichia coli, 18 h, read-out: Pore-TolC E. coli MIC, Pore-TolC E. coli, 37° C., lowest concentration showing <10% bacterial growth. On the procedure:
(§1) The protocol for MIC determination is based on the Clinical & Laboratory Standards Institute (CLSI) guidelines. MICs are determined by setting up 96-well microtiter plates with serially diluted concentrations in DMSO or water ranging from 0-256 μg/mL for each compound of the invention (e.g., 256 μg/mL, 128 μg/mL, 64 μg/mL, 32 μg/mL, 16 μg/mL, 8 μg/mL, 4 μg/mL, 2 μg/mL, 1 μg/mL, etc.). The total volume in each plate is about 200 μL, with 2 μL of each serial dilution added to each well. Clinical isolates of various bacteria are obtained from the American Type Culture Collection (ATCC) and colony-resuspended for MIC testing as per CLSI guidelines. Plates are incubated at 37° C. for 18 hours, and optical density is read on a Tecan M1000 Infinite Pro plate reader at 600 nm. At least 3 replicates are done for each query compound. The MIC for each compound is the lowest compound concentration showing <10% bacterial growth.
(§2) The protocol as described in Example 2 was used to determine the minimal inhibitory concentration (MIC) of each of the following compounds against a strain of S. aureus and Pore-TolC E. coli.

Another assay relates to a strain of S. aureus. The assay is described as follows: MIC determination (CLSI broth microdilution) against S. aureus. Format: cell-based, Staphylococcus aureus. The settings on record: 37° C., lowest concentration showing <10% bacterial growth; for MIC: Staphylococcus aureus, 18 h, read-out: Staph MIC; for Staph MIC: 18 hours. On the procedure: as §1, §2
For orientation: In broth dilution the organism is exposed to a series of concentrations in liquid medium.

The subject of the next assay is E. coli. As to the kind of experiment: Checkerboard broth microdilution (FICI) in combination with Colistin against E. coli. The settings on record: combined with Colistin (0-0.5 μg/mL) against E. coli; compound 0-32 μg/mL; FICI <= 0.5 is synergy. In kind it is cell-based, Escherichia coli. The text has this:
In some embodiments, a compound of the invention and another antibacterial agent are synergistic. In some embodiments, a fractional inhibitory concentration (FIC) index calculation (shown below) is used to show synergy of a compound of the invention and another antibacterial agent.
FICother antibacterial agent=[other antibacterial agent]/MICother antibacterial agent, where [other antibacterial agent] is the lowest inhibitory concentration of the other antibacterial agent in the presence of a compound of the invention.
The FIC index (FICI) is the sum of the FICcompound of the invention and FICother antibacterial agent. Drug-Drug interactions having an FICI of less than or equal to 0.5 are deemed synergistic. In some embodiments, a compound of the invention and another antibacterial agent have a FICI of about 0.5, about 0.4, about 0.3, about 0.2, about 0.1 or about 0. […]
The effect of another antibacterial agent on the activity of the compounds of the invention is evaluated. […] Fractional inhibitory concentration indices (FICIs) are determined by setting up standard checkerboard broth microdilution assays in 96-well microtiter plates with serially diluted 8 (or 10) concentrations of each drug (disclosed compounds and the other antibacterial agent). […] Plates are incubated at 37° C. for 18 hours, and optical density is read on a Tecan M1000 Infinite Pro plate reader at 600 nm. […]

Values after ≈ are worked out from the molar mass of the structure shown.

Regarding `CC(C)=CCC/C(C)=C/Cc1c(O)cc(-c2cncnc2)cc1O` [MLAP-1913], in the assay on Pore-TolC E. coli, the “Pore-TolC E. coli MIC” value was 2 µg/mL. Also, in the assay with a strain of S. aureus, the MIC worked out at 8 µg/mL (≈ 24.7 µM).
In the case of `CC(C)=CCC/C(C)=C/Cc1c(O)cc(C)cc1O` [MLEB-1850], the MIC was 2 µg/mL (≈ 7.68 µM) in the assay with Pore-TolC E. coli and 8 µg/mL (≈ 30.7 µM) with a strain of S. aureus. Further, the FICI in the assay on E. coli was under 0.5.
Turning to `CC(C)=CCC/C(C)=C/Cc1c(O)cccc1O` [MLEB-1864], the MIC stood at 1 µg/mL (≈ 4.06 µM) with Pore-TolC E. coli and 4 µg/mL (≈ 16.2 µM) in the assay on a strain of S. aureus.
Take `CC(C)=CCC/C(C)=C/Cc1c(O)cc(Br)cc1O` [MLEB-1917]: the “Pore-TolC E. coli MIC” value in the assay on Pore-TolC E. coli worked out at 0.5 µg/mL. The FICI with E. coli is under 0.375. The MIC with a strain of S. aureus was determined as 4 µg/mL (≈ 12.3 µM).
With `CC(=O)c1ccc(-c2cc(O)c(C/C=C(\C)CCC=C(C)C)c(O)c2)cc1` [MLEB-1996], the MIC with Pore-TolC E. coli is over 32 µg/mL; in the assay on a strain of S. aureus, 32 µg/mL (≈ 87.8 µM).
Consider `CC(C)=CCC/C(C)=C/Cc1c(O)cc(-c2cccc(C)c2C)cc1O` [MLEB-1997], for which the MIC in the assay with Pore-TolC E. coli turned out to be 1 µg/mL (≈ 2.85 µM); in the assay with a strain of S. aureus, 2 µg/mL (≈ 5.71 µM).
Regarding `CC(C)=CCC/C(C)=C/Cc1c(O)cc(-c2ccc(C)cc2)cc1O` [MLEB-1998], the MIC was 1 µg/mL (≈ 2.97 µM) with Pore-TolC E. coli and 4 µg/mL (≈ 11.9 µM) with a strain of S. aureus.
The matching figures for `CC(C)=CCC/C(C)=C/Cc1c(O)cc(-c2ccc(C(F)(F)F)cc2)cc1O` [MLEB-1999]: 2 µg/mL (≈ 5.12 µM) and 1 µg/mL (≈ 2.56 µM).
With `CC(C)=CCC/C(C)=C/Cc1c(O)cc(-c2ccc(Cl)cc2)cc1O` [MLEB-19100], the MIC in the assay on Pore-TolC E. coli and in the assay on a strain of S. aureus was 2 µg/mL (≈ 5.6 µM) in each case.
For the molecule `CC(C)=CCC/C(C)=C/Cc1c(O)cc(-c2cccc(C(F)(F)F)c2)cc1O` [MLEB-19101], in the assay on Pore-TolC E. coli, the “Pore-TolC E. coli MIC” value came to 1 µg/mL. For the same molecule, in the assay on a strain of S. aureus, the “Staph MIC” value is 2 µg/mL.
For the molecule `CC(C)=CCC/C(C)=C/Cc1c(O)cc(-c2cc(C(F)(F)F)ccc2F)cc1O` [MLEB-19102], the MIC in the assay on Pore-TolC E. coli and with a strain of S. aureus was 2 µg/mL (≈ 4.9 µM) each time.
On to `CC(C)=CCC/C(C)=C/Cc1c(O)cc(-c2cccc(C=O)c2)cc1O` [MLEB-19108], for which the MIC in the assay on a strain of S. aureus stood at 8 µg/mL (≈ 22.8 µM).
Turning to `CC(C)=CCC/C(C)=C/Cc1c(O)cc(-c2cnc3ccccc3c2)cc1O` [MLEB-19109], the MIC in the assay with Pore-TolC E. coli and in the assay on a strain of S. aureus was 32 µg/mL (≈ 85.7 µM) in each case.
On to `CC(C)=CCC/C(C)=C/Cc1c(O)cc(-c2ccc(C=O)cc2)cc1O` [MLEB-19110], for which, in the assay on a strain of S. aureus, the MIC is 8 µg/mL (≈ 22.8 µM).
On to `CC(C)=CCC/C(C)=C/Cc1c(O)cc(-c2cccc(C(F)(F)F)c2)cc1O` [MLEB-19112], for which the MIC in the assay with Pore-TolC E. coli and in the assay on a strain of S. aureus was 1 µg/mL (≈ 2.56 µM) each time.
Turning to `CC(C)=CCC/C(C)=C/Cc1c(O)cc(-c2c(F)cccc2F)cc1O` [MLEB-19114], the values for the MIC in the assay on Pore-TolC E. coli and with a strain of S. aureus were 0.5 µg/mL (≈ 1.39 µM) and 1 µg/mL (≈ 2.79 µM), respectively.
The matching figures for `CC(C)=CCC/C(C)=C/Cc1c(O)cc(-c2cccc(O)c2)cc1O` [MLEB-19115]: 2 µg/mL (≈ 5.91 µM) and 4 µg/mL (≈ 11.8 µM).
Consider `CC(C)=CCC/C(C)=C/Cc1c(O)cc(Br)cc1O` [MLEB-19116], for which the “Pore-TolC E. coli MIC” value in the assay on Pore-TolC E. coli worked out at 4 µg/mL. For the same molecule, the “Staph MIC” value in the assay on a strain of S. aureus was determined as 8 µg/mL.
In the case of `CC(C)=CCC/C(C)=C/Cc1c(O)cc(-c2cnc(N)cn2)cc1O` [MLEB-19117], the MIC in the assay on a strain of S. aureus is 4 µg/mL (≈ 11.8 µM).
On to `CC(C)=CCC/C(C)=C/Cc1c(O)cc(-c2cc(C(F)(F)F)cc(C(F)(F)F)c2)cc1O` [MLEB-19118], for which the MIC with Pore-TolC E. coli was 8 µg/mL (≈ 17.5 µM); in the assay on a strain of S. aureus it was 1 µg/mL (≈ 2.18 µM).
Consider `CC(C)=CCC/C(C)=C/Cc1c(O)cc(-c2c(C)noc2C)cc1O` [MLEB-19120], for which, in the assay with a strain of S. aureus, the MIC came to 2 µg/mL (≈ 5.86 µM).
Regarding `CC(C)=CCC/C(C)=C/Cc1c(O)cc(-c2ccccc2Cl)cc1O` [MLEB-19121], the MIC in the assay with a strain of S. aureus worked out at 0.5 µg/mL (≈ 1.4 µM).
With `CC(C)=CCC/C(C)=C/Cc1c(O)cc(-c2ccncc2)cc1O` [MLEB-19128], the results for the MIC in the assay with Pore-TolC E. coli and with a strain of S. aureus were 2 µg/mL (≈ 6.18 µM) and 4 µg/mL (≈ 12.4 µM), respectively.
For `CC(C)=CCC/C(C)=C/Cc1c(O)cc(-c2cncnc2)cc1O` [MLEB-19129], the “Pore-TolC E. coli MIC” value in the assay with Pore-TolC E. coli was determined as 8 µg/mL. The “Staph MIC” value in the assay on a strain of S. aureus amounted to 16 µg/mL.
Consider `CC(C)=CCC/C(C)=C/Cc1c(O)cc(-c2ccc(F)nc2)cc1O` [MLEB-19130], for which the MIC with Pore-TolC E. coli and with a strain of S. aureus was 2 µg/mL (≈ 5.86 µM) each time.
As to `CC(C)=CCC/C(C)=C/Cc1c(O)cc(-c2ccc(C=O)cc2F)cc1O` [MLEB-19131], the MIC in the assay on Pore-TolC E. coli and in the assay on a strain of S. aureus was 2 µg/mL (≈ 5.43 µM) in each case.
Regarding `CC(C)=CCC/C(C)=C/Cc1c(O)cc(-c2cccc(Cl)c2)cc1O` [MLEB-19132], the MIC with Pore-TolC E. coli and in the assay on a strain of S. aureus was 1 µg/mL (≈ 2.8 µM) each time.
`CC(C)=CCC/C(C)=C/Cc1c(O)cc(-c2cnccc2Cl)cc1O` [MLEB-19133]: the MIC in the assay on Pore-TolC E. coli turned out to be 2 µg/mL (≈ 5.59 µM); in the assay with a strain of S. aureus, 4 µg/mL (≈ 11.2 µM).
For the molecule `CC(C)=CCC/C(C)=C/Cc1c(O)cc(-c2cccc([N+](=O)[O-])c2)cc1O` [MLEB-19134], the MIC in the assay on Pore-TolC E. coli and in the assay on a strain of S. aureus was 1 µg/mL (≈ 2.72 µM) each time.
`CC(C)=CCC/C(C)=C/Cc1c(O)cc(-c2ccnc(Cl)c2)cc1O` [MLEB-19135]: the MIC with Pore-TolC E. coli is 1 µg/mL (≈ 2.79 µM); in the assay on a strain of S. aureus, 4 µg/mL (≈ 11.2 µM).
Regarding `CC(C)=CCC/C(C)=C/Cc1c(O)cc(-c2ccc(C#N)cc2)cc1O` [MLEB-19136], the MIC turned out to be 2 µg/mL (≈ 5.76 µM) in the assay on Pore-TolC E. coli and 4 µg/mL (≈ 11.5 µM) with a strain of S. aureus.
Take `CC(C)=CCC/C(C)=C/Cc1c(O)cc(-c2cccnc2Cl)cc1O` [MLEB-19137]: the MIC in the assay on Pore-TolC E. coli and with a strain of S. aureus was 1 µg/mL (≈ 2.79 µM) each time.
With `COc1ccc(-c2cc(O)c(C/C=C(\C)CCC=C(C)C)c(O)c2)cn1` [MLEB-19138], the MIC in the assay on a strain of S. aureus was 16 µg/mL (≈ 45.3 µM).
In the case of `CC(C)=CCC/C(C)=C/Cc1c(O)cc(-c2cnc(Cl)nc2)cc1O` [MLEB-19139], the MIC in the assay with Pore-TolC E. coli is 4 µg/mL (≈ 11.1 µM); with a strain of S. aureus it was 16 µg/mL (≈ 44.6 µM).
Turning to `CC(C)=CCC/C(C)=C/Cc1c(O)cc(-c2ccc(C=O)o2)cc1O` [MLEB-19161], the MIC with Pore-TolC E. coli and in the assay on a strain of S. aureus was 4 µg/mL (≈ 11.8 µM) throughout.
`CC(C)=CCC/C(C)=C/Cc1c(O)cc(-c2ccc(C#N)s2)cc1O` [MLEB-19162]: the values for the MIC in the assay on Pore-TolC E. coli and in the assay with a strain of S. aureus were 4 µg/mL (≈ 11.3 µM) and 2 µg/mL (≈ 5.66 µM), respectively.
Consider `COc1ccc(-c2cc(O)c(C/C=C(\C)CCC=C(C)C)c(O)c2)cc1` [MLEB-19163], for which the MIC was found to be 2 µg/mL (≈ 5.67 µM) in the assay with Pore-TolC E. coli and 4 µg/mL (≈ 11.3 µM) in the assay with a strain of S. aureus.
Turning to `CC(C)=CCC/C(C)=C/Cc1c(O)cc(-c2ccc(C=O)c(F)c2)cc1O` [MLEB-19164], the MIC with Pore-TolC E. coli was determined as 4 µg/mL (≈ 10.9 µM); with a strain of S. aureus, 2 µg/mL (≈ 5.43 µM).
As for `CC(C)=CCC/C(C)=C/Cc1c(O)cc(-c2ccc([N+](=O)[O-])cc2)cc1O` [MLEB-19165], the MIC in the assay on Pore-TolC E. coli was 1 µg/mL (≈ 2.72 µM); in the assay on a strain of S. aureus, 2 µg/mL (≈ 5.44 µM).
